Experimental data: patent publication US20240225985A1, “BRIGHTENING COMPOSITIONS AND METHODS OF USE” (Alastin Skincare, Inc., priority 2021, published 2024)
Entries after “also recorded” stand apart in the source; their conditions may differ.

Legend:
[1] = test system: hTERT-immortalized dermal melanocytes; assay: Melanocyte assay, daily inspection of cell morphology; format: cell-based, human; details: both concentrations of Table 11; five-day dosing period
Description: Once the melanocytes were 100% confluent in 6-well plates, the melanocyte growth media was removed and the melanocytes were treated with media containing the above compounds; duplicate wells for each compound/concentration listed above. The duplicate vehicle control wells were fed melanocyte growth media only or melanocyte growth media with DMSO (10 uL per 10 mL melanocyte growth media).
The cells were fed the appropriate media for the next 5 days. Each day, the cells were inspected for morphology.

melanocytes = assay: In vitro melanocyte comparative analysis via absorbance readings (melanin production); format: cell-based; details: for Absorbance 405 nm / Absorbance 490 nm / Absorbance 492 nm: 4 days, control = 0.0 row; for Regulation of melanogenesis (decreased absorption denoting decreased melanin formation): melanocytes, summary of Table 10
Description: Melanocytes were cultured in 6-well plates containing growth media. Once confluent, 2 concentrations of each of the 10 compounds were added to the cells in triplicate wells for 4 days. There were a total of eleven 6-well plates, one for each compound treatment and one for the vehicle control. Absorbance readings were taken on the lysates prepared for each well of the 6-well plates, normalizing for cells counts. The model was initially tested for accuracy and validated using hexapeptide-12 in view of strong gene expression results with melanocyte cell line in the first study—confirmation of decreased stimulation was obtained. Additional validation was carried out using MSH addition to media to confirm increased stimulation of melanin production. The following compounds used in this study are seen in Table 9.

[2] = test system: endothelial (HUVEC) cells; assay: Gene expression study (RNA sequencing) in endothelial (HUVEC) cells; format: cell-based, human; details: 24 hours of compound exposure
Description: (§1) Four cell types associated with pigmentation pathways—melanocytes, keratinocytes, fibroblasts and endothelial (HUVEC) cells—were analyzed for gene expression.
(§2) To simulate the UV stimulatory pigmentation pathway process, melanocytes were pre-treated with PGE2, a normal direct consequence of UV light exposure usually emanating from exposed keratinocytes. After the 48 hour attachment culture, these melanocytes were induced with 10 uM PGE2 in melanocyte media for 24 hrs. The four primary human adult dermal cell lines were cultured and plated in well plates in triplicate and then treated with 11 different compound treatments (plus DMSO control). After 48 hours of attachment culture, the remaining fibroblasts, HUVECs and keratinocytes were treated with the test compounds listed in Table 8.
(§3) After 24 hours of compound exposure, RNA lysate preparation was carried out and samples were shipped to MedGenome for RNA extraction, library construction and sequencing to 25M paired end 100 bp reads per sample. Library prep and sequencing was completed at MedGenome.

facial skin [3] = assay: Clinical study, participant assessment of tolerability (burning/stinging, tingling, itching); format: in vivo, human
Text: (§4) Participants underwent up to 8 study visits: screening, baseline, and 3 follow-up visits in the main study, and a 12-week extension study extended to participants at the week 12 follow up visit, which included an additional 3 follow-up visits to be conducted over 12 weeks: week 16, 20, and a final visit at week 24. At the initial screening visit, participants were consented prior to any study procedures. Medical/aesthetic history, concomitant medications, and study eligibility were collected and assessed. The following procedures were performed at Baseline: Investigator assessments, photography, Optical Coherence Tomography (OCT) imaging of the skin (only at select sites). […] Participants were asked to return to the office for follow-up visits at 4, 8, and 12 weeks. […] Participants randomized to the topical study product continued use of the product throughout the duration of the study, along with the study provided cleanser and sunscreen to apply to their facial skin as previously instructed.

[4] = test system: facial dyschromia and/or hyperpigmentation; assay: Clinical study, participant questionnaire; format: in vivo, human
Text: as §4

facial skin [5] = assay: Clinical study, investigator assessment of tolerability (erythema, dryness, peeling); format: in vivo, human
Text: as §4

facial skin [6] = details: human, in vivo, 12 weeks
Text: Adverse events as assessed by investigators is an extremely important parameter for determining potential shortcomings of a product for treatment.

[7] = test system: facial dyschromia and/or hyperpigmentation; assay: Clinical study, investigator mMASI scoring; format: in vivo, human
Text: as §4
(§5) The products were supplied in a kit with a number and then dispensed according to the baseline grading of dyschromia.
Investigator mMASI scoring was performed using a modified MASI scoring method depicted in FIG. 13.

[8] = test system: facial dyschromia and/or hyperpigmentation; assay: Clinical study, investigator assessment of facial skin severity; format: in vivo, human; details: scale 0-9
Text: Forty-three (43) participants (male and female; skin types I-IV; mean age 49.2) with mild to severe facial dyschromia and/or hyperpigmentation on the face were enrolled. Participants provided consent and agreed to limit their sun exposure for the duration of the study. Participants were required to comply with the skincare regimen and return for follow-up visits. This study population was deemed a large enough sample size for safety and efficacy. Only eligible participants were selected to participate. Participants that were enrolled and completed the 3-month study for this protocol were eligible to participate in the 3-month extension study.
as §4, §5
As summarized in Table 15, investigator assessment of facial skin severity considered the overall appearance of dyschromia, skin tone (clarity and evenness), radiance, and skin texture, on the following scale: 0=none; 1-3=mild; 4-6=moderate; 7-9=severe.

keratinocytes = assay: Gene expression study (RNA sequencing) in keratinocytes; format: cell-based, human; details: 24 hours of compound exposure
Description: as §1, §2, §3

[9] = higher concentration (Lactoferrin 1000, HEX-11 200, Phosphatidylserine 500, Silymarin 20, Sesamol 100, Tranexamic Acid 1000, HEX-12 4.9, ug/mL or ug/uL; Phytoene/Phytofluene 5.00%)
[10] = lower concentration (Lactoferrin 500, HEX-11 100, Phosphatidylserine 250, Silymarin 10, Sesamol 50, Tranexamic Acid 500, HEX-12 2.9, ug/mL or ug/uL; Phytoene/Phytofluene 2.50%)
[11] = change week 0 to week 12, N = 44 study product, N = 42 HQ4%
[12] = week 0 (baseline), N = 44 study product, N = 42 HQ4%
[13] = week 12, N = 44 study product, N = 42 HQ4%

## C/C=C1/[C@H](O[C@@H]2O[C@H](CO)[C@@H](O)[C@H](O)[C@H]2O)OC=C(C(=O)OC)[C@H]1CC(=O)OCCc1ccc(O)c(O)c1 [Oleuropein]
[1]
  melanocyte morphology / survival on daily inspection: nearly all melanocytes were dead 72 hours post-initial dosing

## Phosphatidylserine
melanocytes; [9]
  Absorbance 405 nm: 0.61
  Absorbance 490 nm: 0.38
  Absorbance 492 nm: 0.288
melanocytes; [10]
  Absorbance 405 nm: 0.686
  Absorbance 490 nm: 0.438
  Absorbance 492 nm: 0.338
melanocytes
  Regulation of melanogenesis (decreased absorption denoting decreased melanin formation): Regulation of melanogenesis was observed
[2]
  activity on EDN1 and other melanogenic genes in HUVECs: potent activity; also recorded: significant effects on melanogenesis activity

## Oc1ccc(O)cc1 [HQ 4%, Hydroquinone]
Facial skin [3]; Week 4
  Burning/Stinging, number of participants and grade: 6 minimal
  Burning/Stinging, percent of participants: 27%
  Itching, percent of participants: 36%
  Tingling, percent of participants: 18%
Facial skin [3]; Week 8
  Burning/Stinging, percent of participants: 9.5%
  Itching, number of participants and grade: 1 minimal
  Itching, percent of participants: 4.7%
  Tingling, number of participants and grade: 1 mild
  Tingling, percent of participants: 4.7%
Facial skin [3]; Week 12
  Burning/Stinging, number of participants and grade: 2 minimal
  Burning/Stinging, percent of participants: 9.5%
  Itching, percent of participants: 9.5%
  Tingling, number of participants and grade: 1 minimal
  Tingling, percent of participants: 4.7%
Facial skin [3]; summary of Table 19
  participant-reported irritation versus the study product population: irritation is increased across all parameters
[4]; Week 4
  Improved the evenness of my skin tone, % Agree or Somewhat Agree: 76.19%
  Improved the overall appearance of my skin, % Agree or Somewhat Agree: 76.19%
  Lessened the appearance of the dark spots and discoloration on my skin, % Agree or Somewhat Agree: 80.95%
  Made me feel more confident in the way my skin looks, % Agree or Somewhat Agree: 61.90%
  Made my skin look brighter and more radiant, % Agree or Somewhat Agree: 66.67%
  Made my skin look healthier, % Agree or Somewhat Agree: 61.90%
  Made my skin look more youthful, % Agree or Somewhat Agree: 42.86%
[4]; Week 8
  Improved the overall appearance of my skin, % Agree or Somewhat Agree: 85.71%
  Lessened the appearance of the dark spots and discoloration on my skin, % Agree or Somewhat Agree: 80.95%
  Made me feel more confident in the way my skin looks, % Agree or Somewhat Agree: 61.90%
  Made my skin look brighter and more radiant, % Agree or Somewhat Agree: 66.67%
  Made my skin look healthier, % Agree or Somewhat Agree: 71.43%
  Made my skin look more youthful, % Agree or Somewhat Agree: 71.43%
[4]; Week 12
  Improved the evenness of my skin tone, % Agree or Somewhat Agree: 85.71%
  Improved the overall appearance of my skin, % Agree or Somewhat Agree: 85.71%
  Lessened the appearance of the dark spots and discoloration on my skin, % Agree or Somewhat Agree: 76.19%
  Made me feel more confident in the way my skin looks, % Agree or Somewhat Agree: 61.90%
  Made my skin look brighter and more radiant, % Agree or Somewhat Agree: 90.48%
  Made my skin look healthier, % Agree or Somewhat Agree: 85.71%
  Made my skin look more youthful, % Agree or Somewhat Agree: 71.43%
[4]; Week &
  Improved the evenness of my skin tone, % Agree or Somewhat Agree: 85.71%
Facial skin [5]; Week 4
  Dryness, percent of participants: 13.6%
  Erythema, percent of participants: 23%
  Peeling, percent of participants: 13.6%
Facial skin [5]; Week 8
  Dryness, percent of participants: 14%
  Erythema, percent of participants: 14%
  Peeling, number of participants and grade: 1 mild
  Peeling, percent of participants: 4.7%
Facial skin [5]; Week 12
  Dryness, number of participants and grade: 0
  Erythema, number of participants and grade: 4 minimal
  Erythema, percent of participants: 19%
  Peeling, number of participants and grade: 0
Facial skin [6]
  adverse events, percent of population: 23.8%
  total number of adverse events reported: 5
[7]; Week 12
  Left mMASI, mean: 1.8
  Left malar, mean: 6
  Right mMASI, mean: 1.9
  Right malar, mean: 6.3
  Total mMASI, mean: 5.2
[7]; change week 0 to week 12
  Left mMASI, mean change: 0.3
  Left malar, mean change: 1.1
  Right mMASI, mean change: 0.3
  Right malar, mean change: 1.1
  Total mMASI, mean change: 1
[7]; [11]
  Combined right and left mMASI, mean change: 0.3
  Combined right and left malar, mean change: 1.1
[7]; summary of Table 17
  improvement in mMASI scoring at 12 weeks versus baseline: no such improvement
[7]; week 0 (baseline)
  Left mMASI, mean: 2.2
  Left malar, mean: 7.2
  Right mMASI, mean: 2.2
  Right malar, mean: 7.4
  Total mMASI, mean: 6.1
[7]; [12]
  Combined right and left mMASI, mean: 2.2
  Combined right and left malar, mean: 7.3
[7]; [13]
  Combined right and left mMASI, mean: 1.9
  Combined right and left malar, mean: 6.2
[8]; change week 0 to week 12
  Dyschromia, investigator score, mean change: 0.9
  Radiance, investigator score, mean change: 0.3
  Skin tone, investigator score, mean change: 0.9
  Texture, investigator score, mean change: 0
[8]; week 0 (baseline)
  Dyschromia, investigator score, mean: 5.7
  Radiance, investigator score, mean: 5
  Skin tone, investigator score, mean: 5.5
  Texture, investigator score, mean: 4.2
[8]; week 12
  Dyschromia, investigator score, mean: 4.8
  Radiance, investigator score, mean: 4.6
  Skin tone, investigator score, mean: 4.7
  Texture, investigator score, mean: 4.2

## Hexapeptide-11
keratinocytes
  melanogenesis gene activity in keratinocytes: active ingredient in melanogenesis activity; also recorded: significant effects on melanogenesis activity
melanocytes; [9]
  Absorbance 405 nm: 0.338
  Absorbance 490 nm: 0.227
  Absorbance 492 nm: 0.163
melanocytes; [10]
  Absorbance 405 nm: 0.461
  Absorbance 490 nm: 0.288
  Absorbance 492 nm: 0.209
melanocytes
  Regulation of melanogenesis (decreased absorption denoting decreased melanin formation): Regulation of melanogenesis was observed
